Reference: PubChem BioAssay AID256 (DTP/NCI, 2004)
Where “and” joins values, the source holds several entries; their conditions need not be identical. Equal entries are not always repeated. Inconclusive results and toxic doses are left out.

Test system: CD2F1 mice, L1210 leukemia ip, survival T/C
Test: NCI In Vivo Anticancer Drug Screen. Data for tumor model L1210 Leukemia (intraperitoneal) in CD2F1 (CDF1) mice
Conditions: higher = longer survival
Method in brief: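 Read-out first: treated-group measurement over vehicle-control measurement, expressed as a ratio. Animals bore a transplanted tumor line and were dosed with compound or vehicle.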

`O=NN(CCCl)C(=O)NC1CCCCC1` was tested, and the T/C (endpoint: mean survival time, dose: 0.5 mg/kg/injection, schedule: Q03HX008 (oral), vehicle: saline) was 214 % of control, the T/C (endpoint: mean survival time, dose: 0.5 mg/kg/injection, schedule: Q03HX024 (oral), vehicle: saline) was 290 % of control and the T/C (endpoint: mean survival time, dose: 0.5 mg/kg/injection, schedule: Q03HX040 (oral), vehicle: saline) was 200 % of control. For the same compound, the T/C (endpoint: mean survival time, dose: 1.0 mg/kg/injection, schedule: Q01DX001 (ip), vehicle: saline) was 98 % of control, the T/C (endpoint: mean survival time, dose: 1.0 mg/kg/injection, schedule: Q01DX005 (ip), vehicle: saline) was 113 % of control and the T/C (endpoint: mean survival time, dose: 1.0 mg/kg/injection, schedule: Q01DX009 (ip), vehicle: saline) was 100 % of control. For the same compound, the T/C (endpoint: mean survival time, dose: 1.0 mg/kg/injection, schedule: Q03HX024 (oral), vehicle: saline) was 194 % of control, the T/C (endpoint: mean survival time, dose: 1.0 mg/kg/injection, schedule: Q03HX040 (oral), vehicle: saline) was 96 % of control and the T/C (endpoint: mean survival time, dose: 2.0 mg/kg/injection, schedule: Q03HX008 (oral), vehicle: saline) was 338 % of control. For the same compound, the T/C (endpoint: mean survival time, dose: 4.0 mg/kg/injection, schedule: Q01DX001 (ip), vehicle: other) was 109 % of control, the T/C (endpoint: mean survival time, dose: 4.0 mg/kg/injection, schedule: Q03HX024 (oral), vehicle: saline) was 96 % of control and the T/C (endpoint: mean survival time, dose: 8.0 mg/kg/injection, schedule: Q01DX001 (ip), vehicle: saline) was 108 % of control. The T/C (endpoint: mean survival time, dose: 8.0 mg/kg/injection, schedule: Q01DX001 (oral), vehicle: saline) was 100 % of control, the T/C (endpoint: mean survival time, dose: 8.0 mg/kg/injection, schedule: Q01DX005 (ip), vehicle: saline) was 267 % of control and the T/C (endpoint: mean survival time, dose: 8.0 mg/kg/injection, schedule: Q01DX009 (ip), vehicle: saline) was 191 % of control. The T/C (endpoint: mean survival time, dose: 8.0 mg/kg/injection, schedule: Q03HX008 (ip), vehicle: saline) was 108 % of control, the T/C (endpoint: mean survival time, dose: 8.0 mg/kg/injection, schedule: Q04DX003 (ip), vehicle: saline) was 124 % of control and the T/C (endpoint: mean survival time, dose: 9.0 mg/kg/injection, schedule: Q01DX001 (ip), vehicle: carboxymethylcellulose (CMC)) was 111 % of control. For the same compound, the T/C (endpoint: mean survival time, dose: 16.0 mg/kg/injection, schedule: Q01DX001 (ip), vehicle: other) was 169 % of control, the T/C (endpoint: mean survival time, dose: 16.0 mg/kg/injection, schedule: Q01DX005 (ip), vehicle: saline) was 393 % of control and the T/C (endpoint: mean survival time, dose: 16.0 mg/kg/injection, schedule: Q01DX009 (ip), vehicle: saline) was 315 % of control. For the same compound, the T/C (endpoint: mean survival time, dose: 16.0 mg/kg/injection, schedule: Q03HX024 (ip), vehicle: saline) was 210 % of control, the T/C (endpoint: mean survival time, dose: 16.0 mg/kg/injection, schedule: Q03HX040 (ip), vehicle: saline) was 217 % of control and the T/C (endpoint: mean survival time, dose: 16.0 mg/kg/injection, schedule: Q04DX003 (ip), vehicle: saline + alcohol) was 158 % of control and 425 % of control. For the same compound, the T/C (endpoint: mean survival time, dose: 16.0 mg/kg/injection, schedule: Q04DX003 (ip), vehicle: saline) was 279 % of control, the T/C (endpoint: mean survival time, dose: 22.0 mg/kg/injection, schedule: Q01DX001 (ip), vehicle: carboxymethylcellulose (CMC)) was 178 % of control and the T/C (endpoint: mean survival time, dose: 32.0 mg/kg/injection, schedule: Q01DX001 (ip), vehicle: other) was 348 % of control. The T/C (endpoint: mean survival time, dose: 32.0 mg/kg/injection, schedule: Q01DX001 (ip), vehicle: saline) was 157 % of control, the T/C (endpoint: mean survival time, dose: 32.0 mg/kg/injection, schedule: Q01DX001 (oral), vehicle: saline) was 118 % of control and the T/C (endpoint: mean survival time, dose: 32.0 mg/kg/injection, schedule: Q01DX005 (ip), vehicle: saline) was 393 % of control. For the same compound, the T/C (endpoint: mean survival time, dose: 32.0 mg/kg/injection, schedule: Q01DX005 (oral), vehicle: saline) was 310 % of control, the T/C (endpoint: mean survival time, dose: 32.0 mg/kg/injection, schedule: Q01DX009 (ip), vehicle: saline) was 224 % of control and the T/C (endpoint: mean survival time, dose: 32.0 mg/kg/injection, schedule: Q01DX009 (oral), vehicle: saline) was 159 % of control. For the same compound, the T/C (endpoint: mean survival time, dose: 32.0 mg/kg/injection, schedule: Q03HX008 (ip), vehicle: saline) was 191 % of control, the T/C (endpoint: mean survival time, dose: 32.0 mg/kg/injection, schedule: Q03HX024 (ip), vehicle: saline) was 421 % of control and the T/C (endpoint: mean survival time, dose: 32.0 mg/kg/injection, schedule: Q03HX040 (ip), vehicle: saline) was 432 % of control. The T/C (endpoint: mean survival time, dose: 32.0 mg/kg/injection, schedule: Q04DX003 (ip), vehicle: saline + alcohol) was 515 % of control, the T/C (endpoint: mean survival time, dose: 32.0 mg/kg/injection, schedule: Q04DX003 (ip), vehicle: saline) was 406 % of control and the T/C (endpoint: mean survival time, dose: 32.0 mg/kg/injection, schedule: Q04DX003 (oral), vehicle: saline) was 267 % of control. The T/C (endpoint: mean survival time, dose: 33.0 mg/kg/injection, schedule: Q01DX001 (ip), vehicle: carboxymethylcellulose (CMC)) was 208 % of control, the T/C (endpoint: mean survival time, dose: 48.0 mg/kg/injection, schedule: Q04DX003 (ip), vehicle: saline + alcohol) was 82 % of control and the T/C (endpoint: mean survival time, dose: 50.0 mg/kg/injection, schedule: Q01DX001 (ip), vehicle: carboxymethylcellulose (CMC)) was 352 % of control. For the same compound, the T/C (endpoint: mean survival time, dose: 64.0 mg/kg/injection, schedule: Q01DX001 (ip), vehicle: other) was 208 % of control, the T/C (endpoint: mean survival time, dose: 64.0 mg/kg/injection, schedule: Q01DX001 (ip), vehicle: saline) was 411 % of control and the T/C (endpoint: mean survival time, dose: 64.0 mg/kg/injection, schedule: Q01DX005 (ip), vehicle: saline) was 98 % of control. The T/C (endpoint: mean survival time, dose: 64.0 mg/kg/injection, schedule: Q01DX005 (oral), vehicle: saline) was 107 % of control, the T/C (endpoint: mean survival time, dose: 64.0 mg/kg/injection, schedule: Q01DX009 (ip), vehicle: saline) was 120 % of control and the T/C (endpoint: mean survival time, dose: 64.0 mg/kg/injection, schedule: Q01DX009 (oral), vehicle: saline) was 95 % of control. The T/C (endpoint: mean survival time, dose: 64.0 mg/kg/injection, schedule: Q03HX008 (ip), vehicle: saline) was 437 % of control, the T/C (endpoint: mean survival time, dose: 64.0 mg/kg/injection, schedule: Q03HX024 (ip), vehicle: saline) was 330 % of control and the T/C (endpoint: mean survival time, dose: 64.0 mg/kg/injection, schedule: Q03HX040 (ip), vehicle: saline) was 259 % of control. For the same compound, the T/C (endpoint: mean survival time, dose: 64.0 mg/kg/injection, schedule: Q04DX003 (ip), vehicle: saline) was 209 % of control, the T/C (endpoint: mean survival time, dose: 75.0 mg/kg/injection, schedule: Q01DX001 (ip), vehicle: carboxymethylcellulose (CMC)) was 332 % of control and the T/C (endpoint: mean survival time, dose: 128.0 mg/kg/injection, schedule: Q01DX001 (ip), vehicle: saline) was 198 % of control. For the same compound, the T/C (endpoint: mean survival time, dose: 128.0 mg/kg/injection, schedule: Q01DX001 (oral), vehicle: saline) was 330 % of control, the T/C (endpoint: mean survival time, dose: 128.0 mg/kg/injection, schedule: Q03HX008 (ip), vehicle: saline) was 437 % of control and the T/C (endpoint: mean survival time, dose: 128.0 mg/kg/injection, schedule: Q03HX040 (ip), vehicle: saline) was 86 % of control. The T/C (endpoint: mean survival time, dose: 128.0 mg/kg/injection, schedule: Q04DX003 (oral), vehicle: saline) was 110 % of control, the T/C (endpoint: mean survival time, dose: 256.0 mg/kg/injection, schedule: Q04DX003 (oral), vehicle: saline) was 86 % of control and the T/C (endpoint: median survival time, dose: 1.0 mg/kg/injection, schedule: Q01DX009 (ip), vehicle: Klucel (hydroxypropylcellulose) (HPC)) was 113 % of control and 106 % of control. For the same compound, the T/C (endpoint: median survival time, dose: 2.0 mg/kg/injection, schedule: Q01DX009 (ip), vehicle: Klucel (hydroxypropylcellulose) (HPC)) was 113 % of control, the T/C (endpoint: median survival time, dose: 4.0 mg/kg/injection, schedule: Q04DX003 (ip), vehicle: saline + alcohol) was 105 % of control and the T/C (endpoint: median survival time, dose: 8.0 mg/kg/injection, schedule: Q04DX003 (ip), vehicle: saline + alcohol) was 98 % of control. For the same compound, the T/C (endpoint: median survival time, dose: 8.4 mg/kg/injection, schedule: Q01DX001 (ip), vehicle: distilled water + Tween-80 + alcohol) was 94 % of control, the T/C (endpoint: median survival time, dose: 14.0 mg/kg/injection, schedule: Q01DX001 (ip), vehicle: distilled water + Tween-80 + alcohol) was 100 % of control and the T/C (endpoint: median survival time, dose: 14.0 mg/kg/injection, schedule: Q07DX003 (ip), vehicle: saline + alcohol) was 157 % of control. The T/C (endpoint: median survival time, dose: 16.0 mg/kg/injection, schedule: Q04DX003 (ip), vehicle: saline + alcohol) was 109 % of control, the T/C (endpoint: median survival time, dose: 20.0 mg/kg/injection, schedule: Q07DX003 (ip), vehicle: saline + alcohol) was 584 % of control and the T/C (endpoint: median survival time, dose: 26.0 mg/kg/injection, schedule: Q07DX003 (ip), vehicle: saline + alcohol) was 669 % of control. The T/C (endpoint: median survival time, dose: 27.0 mg/kg/injection, schedule: Q01DX001 (ip), vehicle: carboxymethylcellulose (CMC)) was 184 % of control, the T/C (endpoint: median survival time, dose: 32.0 mg/kg/injection, schedule: Q04DX003 (ip), vehicle: saline + alcohol) was 438 % of control and the T/C (endpoint: median survival time, dose: 33.0 mg/kg/injection, schedule: Q07DX003 (ip), vehicle: saline + alcohol) was 671 % of control. For the same compound, the T/C (endpoint: median survival time, dose: 40.0 mg/kg/injection, schedule: Q01DX001 (ip), vehicle: carboxymethylcellulose (CMC)) was 722 % of control, the T/C (endpoint: median survival time, dose: 40.0 mg/kg/injection, schedule: Q01DX001 (ip), vehicle: distilled water + Tween-80 + alcohol) was 154 % of control and the T/C (endpoint: median survival time, dose: 64.0 mg/kg/injection, schedule: Q01DX009 (ip), vehicle: Klucel (hydroxypropylcellulose) (HPC)) was 96 % of control and 109 % of control.

In the case of `O=C(O)C(O)C(O)C1[O][Sb][O]C1C(=O)O` (configuration not stated), the T/C (endpoint: median survival time, dose: 6.25 mg/kg/injection, schedule: Q01DX009 (ip), vehicle: saline) is reported as 93 % of control, the T/C (endpoint: median survival time, dose: 12.5 mg/kg/injection, schedule: Q01DX009 (ip), vehicle: saline) is reported as 102 % of control and the T/C (endpoint: median survival time, dose: 25.0 mg/kg/injection, schedule: Q01DX009 (ip), vehicle: saline) is reported as 95 % of control. The T/C (endpoint: median survival time, dose: 50.0 mg/kg/injection, schedule: Q01DX009 (ip), vehicle: saline) was 98 % of control.

In the case of `O=C(COc1ccc(Cl)cc1C(=O)O)NCc1cccc(NC(=O)Nc2cccc(S(=O)(=O)F)c2)c1`, the T/C (endpoint: mean survival time, dose: 100.0 mg/kg/injection, schedule: Q01DX001 (ip), vehicle: saline with Tween-80) is reported as 91 % of control, the T/C (endpoint: mean survival time, dose: 200.0 mg/kg/injection, schedule: Q01DX001 (ip), vehicle: saline with Tween-80) is reported as 93 % of control and the T/C (endpoint: mean survival time, dose: 400.0 mg/kg/injection, schedule: Q01DX001 (ip), vehicle: saline with Tween-80) is reported as 88 % of control.
